Reference: patent EP0819124B1, “AZOLE COMPOUNDS WITH ANTIMYCOTIC ACTIVITY FOR HUMAN AND VETERINARY USE” (ZAMBON GROUP S.p.A., priority 1995, dated 1996)
Converted amounts (≈) assume the structure as drawn. Read-outs that look alike come from different tables or passages of the source.

Columns and labels:
[1] = system: C. albicans 1040; assay: In vitro antimycotic activity, macromethod of scalar broth dilutions (YNB); assay type: cell-based, Candida albicans
Protocol: (§1) The determination of the activity inhibiting the growth of mycetes was evaluated by the macromethod of scalar brothdilutions in geometrical progression (M.R. McGinnis and M.G. Rinaldi, "Antifungal drugs: mechanisms of action, drug resistance, susceptibility testing and assay of activity in biological fluids", in Antibiotic in Laboratory Medicine, Ed. V. Lorian, Baltimora 1991).
(§2) As culture media Yeast Nitrogen Base broth (YNB) and Sabouraud Dextrose broth (SDB) were used for yeasts and moulds, respectively.
(§3) The results obtained in SDB (after incubation at 28°C for 7 days) were expressed as minimum inhibiting concentrations (MIC) the growth of mycetes, while those obtained in YNB (after incubation at 35°C for 48 hours) were expressed as concentrations able to inhibit at 50% (IC50) the growth of the yeast.
(§4) As reference compounds Fluconazole, Itraconazole and Genaconazole were used.

[2] = system: C. neoformans; assay: as above; assay type: cell-based; details: Cryptococcus neoformans
Protocol: as §1, §2, §3, §4

[3] = system: Candida albicans 1040; assay: In vivo antimycotic activity in mice experimentally infected by C. albicans, oral route; design: species or system Charles River white mice (CD1 strain); details: for PD50 at 8th day / PD50 at 14th day: oral route, probits analysis; for PD50 at 8th day: 8 days from the infection; for PD50 at 14th day: 14 days from the infection; for % percentage of survival after day 3 / % percentage of survival after day 6: mice infected by C. albicans, dose 25 mg/kg/os
Protocol: Charles River white mice (CD1 strain) weighing from 23 to 25 g, normo-feeded with standard diet and water ad libitum were used.
A suspension (0.2 ml containing 2.5x10^7 cells/ml) of Candida albicans 1040 in physiologic solution was injected to each animal by venous route. Immediately after the infection and after 4, 24 and 48 hours, the animals received by oral route (in arabic gum at 2%) doses increasing in a geometrical progression of the compound to be tested. The infected group was used as control.
The observation of the mortality of the mice was prolonged up to 14 days. From the number of survived animals for each concentration the average protective dose (DP50) was calculated by probits analysis (L.Lison - "Statistica applicata alla biologia sperimentale. La programmazione dell'esperimento e l'analisi dei risultati" - Casa Editrice Ambrosiana, 1961).
Compounds R1 and R2 were used as comparative compounds.
Fluconazole and Itraconazole were used as reference compounds.

[4] = system: T.mentagrophytes; assay: In vitro antimycotic activity, macromethod of scalar broth dilutions (SDB); assay type: cell-based, Trychophyton mentagrophytes; details: Trichophyton mentagrophytes, 168 h
Protocol: as §1, §2, §3, §4

[5] = system: A. fumigatus; assay: as above; assay type: cell-based; details: Aspergillus fumigatus, 168 h
Protocol: as §1, §2, §3, §4

[6] = system: Trichosporon sp. (1); assay: In vitro antimycotic activity, strain panel (Table 2); assay type: cell-based; details: Trichosporon sp., 1 strain; single value under head MIC50 MIC90; read-out: MIC
Protocol: as §1, §2, §3, §4
(§5) Note to the table: MIC expressed as µg/ml Within brackets the number of tested strains Table 3

[7] = system: C. spp * (5) (C. parapsilosis, lusitaniae, kefyr); assay: as above; assay type: cell-based; details: Lodderomyces parapsilosis, C. parapsilosis, lusitaniae, kefyr, 5 strains
Protocol: as §1, §2, §3, §4, §5

[8] = system: C. albicans (7); assay: as above; assay type: cell-based; details: Candida albicans, C. albicans, 7 strains
Protocol: as §1, §2, §3, §4, §5

[9] = system: B. capitatus (1); assay: as above; assay type: cell-based; details: Magnusiomyces capitatus; B. capitatus, 1 strain; single value under head MIC50 MIC90; read-out: MIC
Protocol: as §1, §2, §3, §4, §5

[10] = system: C. tropicalis (2); assay: as above; assay type: cell-based; details: Candida tropicalis; C. tropicalis, 2 strains; single value or range printed under head MIC50 MIC90; read-out: MIC
Protocol: as §1, §2, §3, §4, §5

[11] = system: C. neoformans (4); assay: as above; assay type: cell-based; details: Cryptococcus neoformans, C. neoformans, 4 strains
Protocol: as §1, §2, §3, §4, §5

[12] = system: Fusarium sp; assay: In vitro antimycotic activity against recently isolated Fusarium strains (Tables 2 and 3); assay type: cell-based; details: Fusarium
Protocol: as §1, §2, §3, §4, §5

[13] = system: C. krusei (2); assay: In vitro antimycotic activity, strain panel (Table 2); assay type: cell-based, Candida krusei; details: Pichia kudriavzevii
Protocol: as §1, §2, §3, §4, §5

[14] = system: C. glabrata (2); assay: as above; assay type: cell-based, Candida glabrata; details: Nakaseomyces glabratus; C. glabrata, 2 strains; single value or range printed under head MIC50 MIC90; read-out: MIC
Protocol: as §1, §2, §3, §4, §5

[15] = Candida albicans, C. albicans 1040, YNB, incubation at 35°C for 48 hours, read-out: IC50
[16] = C. neoformans, YNB, incubation at 35°C for 48 hours, read-out: IC50
[17] = T.mentagrophytes, SDB, incubation at 28°C for 7 days, read-out: MIC
[18] = A. fumigatus, SDB, incubation at 28°C for 7 days, read-out: MIC

SMILES	IC50 [1, 15]	IC50 [2, 16]	MIC [4, 17]	MIC [5, 18]	PD50 at 8th day [3]	PD50 at 14th day [3]	also measured
CCC(COC(F)(F)C(F)F)C(O)(Cn1cncn1)c1ccc(F)cc1F (racemic) [Compound 7, (±)-1-(1H-1,2,4-triazolyl)-2-hydroxy-2-(2,4-difluorophenyl)-3-ethyl-4-(1,1,2,2-tetrafluoroethoxy)butane nitrate]					1.5 mg/kg/os	2.19 mg/kg/os	IC50 ([1]; Candida albicans, 1040, 48 h): 0.0312 µg/mL; IC50 ([2]; 48 h): 0.125 µg/mL; MIC [4]: 0.5 µg/mL; MIC [5]: 16 µg/mL
CCC(OC(F)(F)C(F)F)C(C)C(O)(Cn1cncn1)c1ccc(Cl)cc1Cl (racemic) [Compound 2, (±)-1-(1H-1,2,4-triazolyl)-2-hydroxy-2-(2,4-dichlorophenyl)-3-methyl-4-(1,1,2,2-tetrafluoroethoxy)hexane]	0.0312 µg/mL (≈ 0.0702 µM)	0.125 µg/mL (≈ 0.281 µM)	2 µg/mL (≈ 4.5 µM)	4 µg/mL (≈ 9 µM)			% percentage of survival after day 3 [3]: 100%; % percentage of survival after day 6 [3]: 100%
CC(C)(COC(F)(F)C(F)F)C(O)(Cn1cncn1)c1ccc(Cl)cc1 (racemic) [Compound 3, (±)-1-(1H-1,2,4-triazolyl)-2-hydroxy-2-(4-chlorophenyl)-3,3-dimethyl-4-(1,1,2,2-tetrafluoroethoxy)butane]	0.0625 µg/mL (≈ 0.158 µM)	0.0625 µg/mL (≈ 0.158 µM)	1 µg/mL (≈ 2.53 µM)	> 128 µg/mL	0.49 mg/kg/os	1.3 mg/kg/os	MIC [6]: 0.12 µg/mL (≈ 0.303 µM); MIC50 ([7]; read-out: MIC50): ≤ 0.03 µg/mL; MIC90 ([7]; read-out: MIC90): ≤ 0.03 µg/mL; MIC50 ([8]; read-out: MIC50): ≤ 0.03 µg/mL; MIC90 ([8]; read-out: MIC90): 2 µg/mL (≈ 5.05 µM); MIC [9]: 0.06 µg/mL (≈ 0.152 µM); MIC [10]: 0.5 µg/mL (≈ 1.26 µM); MIC50 ([11]; read-out: MIC50): ≤ 0.03 µg/mL; MIC90 ([11]; read-out: MIC90): 0.5 µg/mL (≈ 1.26 µM); MIC [12]: 16 to 64 µg/mL (≈ 40.4 to 162 µM); % percentage of survival after day 3 [3]: 100%; % percentage of survival after day 6 [3]: 100%; MIC [13]: 0.03 to 0.5 µg/mL (≈ 0.0758 to 1.26 µM); MIC [14]: 0.5 to 2 µg/mL (≈ 1.26 to 5.05 µM)
CC(COC(F)(F)C(F)F)C(O)(Cn1cncn1)c1ccc(F)cc1F (racemic) [Compound 6, (±)-1-(1H-1,2,4-triazolyl)-2-hydroxy-2-(2.4-difluorophenyl)-3-methyl-4-(1,1,2,2-tetrafluoroethoxy)butane]	0.0312 µg/mL (≈ 0.0814 µM)	0.0625 µg/mL (≈ 0.163 µM)	0.5 µg/mL (≈ 1.3 µM)	16 µg/mL (≈ 41.7 µM)	0.42 mg/kg/os	1.10 mg/kg/os	

Further lines, with some results ahead:

IC50 [1, 15]	IC50 [2, 16]	MIC [4, 17]	MIC [5, 18]	SMILES	PD50 at 8th day [3]	PD50 at 14th day [3]	also measured
0.0156 µg/mL (≈ 0.0349 µM)	0.125 µg/mL (≈ 0.279 µM)	2 µg/mL (≈ 4.47 µM)	> 128 µg/mL	CC(C)(COC(F)(F)C(F)C(F)(F)F)C(O)(Cn1cncn1)c1ccc(F)cc1F (racemic) [Compound 9]	0.89 mg/kg/os	1.57 mg/kg/os	
0.0156 µg/mL (≈ 0.0427 µM)	0.0156 µg/mL (≈ 0.0427 µM)	0.125 µg/mL (≈ 0.342 µM)	4 µg/mL (≈ 10.9 µM)	CC(C)(COC(F)(F)F)C(O)(Cn1cncn1)c1ccc(F)cc1F (racemic) [Compound 12, (±)-1-(1H-1,2,4-triazolyl)-2-hydroxy-2-(2,4-difluorophenyl)-3,3-dimethyl-4-trifluoromethoxy-butane]	1.09 mg/kg/os	1.39 mg/kg/os	
0.0312 µg/mL (≈ 0.0725 µM)	0.0156 µg/mL (≈ 0.0363 µM)	0.25 µg/mL (≈ 0.581 µM)	> 4 µg/mL	CC(C)(COC(F)(F)C(F)F)C(O)(Cn1cncn1)c1ccc(Cl)cc1Cl (racemic) [Compound 8, (±)-1-(1H-1,2,4-triazolyl)-2-hydroxy-2-(2,4-dichlorophenyl)-3,3-dimethyl-4-(1,1,2,2-tetrafluoroethoxy)butane]			
